Values after ≈ are worked out from the molar mass of the structure shown.
How the values were obtained:
Format in all cases: functional
Streptococcus mutans = assay: Antimicrobial activity against Streptococcus mutans by agar dilution method
Porphyromonas gingivalis = assay: Antimicrobial activity against protease-positive Porphyromonas gingivalis by agar dilution method
[1] = system: Porphyromonas cangingivalis; assay: Antimicrobial activity against protease-positive Porphyromonas cangingivalis by agar dilution method
[2] = system: Porphyromonas circumdentaria; assay: Antimicrobial activity against protease-positive Porphyromonas circumdentaria by agar dilution method
Staphylococcus = assay: Antimicrobial activity against Staphylococci
Acinetobacter lwoffii = assay: Antimicrobial activity against Acinetobacter lwoffii after 18 to 24 hrs by geometric microdilution method
Escherichia coli = assay: Antimicrobial activity against Escherichia coli after 18 to 24 hrs by geometric microdilution method
Pseudomonas aeruginosa = assay: Antimicrobial activity against Pseudomonas aeruginosa after 18 to 24 hrs by geometric microdilution method
Klebsiella pneumoniae = assay: Antimicrobial activity against Klebsiella pneumoniae after 18 to 24 hrs by geometric microdilution method

Question: Which results are given for `CCCCCCCCNCCC[C@@H](C)[C@H]1CC[C@H]2[C@@H]3[C@H](OCCCN)C[C@@H]4C[C@H](OCCCN)CC[C@]4(C)[C@H]3C[C@H](OCCCN)[C@]12C`?
Answer: MIC (Streptococcus mutans): 1 µg/mL (≈ 1.48 µM); MIC (Porphyromonas gingivalis): 2 µg/mL (≈ 2.95 µM); MIC [1]: 2 µg/mL (≈ 2.95 µM); MIC [2]: 1 µg/mL (≈ 1.48 µM)

Question: With `CCN(CC)CCCCOc1cc2oc3cc(OCCCCN(CC)CC)c(OC)c(CC=C(C)C)c3c(=O)c2c(O)c1CC=C(C)C` as the compound, how does the MIC (Staphylococcus) read?
Answer: 0.095 µg/mL (≈ 0.143 µM)

Question: With `NC[C@H]1O[C@H](O[C@H]2[C@H](O)[C@@H](OCc3ccc4ccccc4c3)[C@H](N)C[C@@H]2N)[C@H](N)[C@@H](OCc2ccc3ccccc3c2)[C@@H]1OCc1ccc2ccccc2c1` as the compound, how does the MIC (Acinetobacter lwoffii) read?
Answer: 2 µg/mL (≈ 2.69 µM)

Question: And the MIC (Escherichia coli)?
Answer: 2 µg/mL (≈ 2.69 µM)

Question: What about the MIC (Pseudomonas aeruginosa) of the same compound?
Answer: 2 µg/mL (≈ 2.69 µM)

Question: What about the MIC (Klebsiella pneumoniae) of the same compound?
Answer: 2 µg/mL (≈ 2.69 µM)

Source: ChEMBL document CHEMBL3596187, “Design and synthesis of membrane-targeting antibiotics: from peptides- to aminosugar-based antimicrobial cationic amphiphiles” (2014)
